{"source": "patent US7052705B2", "about": "“Anti-angiogenic peptides” (Regeneron Pharmaceuticals, Inc., priority 2001, dated 2006)", "key": {"NP-1": {"target": "NP-1 (Homo sapiens, UniProt O14786)", "sequence (O14786 22-923)": "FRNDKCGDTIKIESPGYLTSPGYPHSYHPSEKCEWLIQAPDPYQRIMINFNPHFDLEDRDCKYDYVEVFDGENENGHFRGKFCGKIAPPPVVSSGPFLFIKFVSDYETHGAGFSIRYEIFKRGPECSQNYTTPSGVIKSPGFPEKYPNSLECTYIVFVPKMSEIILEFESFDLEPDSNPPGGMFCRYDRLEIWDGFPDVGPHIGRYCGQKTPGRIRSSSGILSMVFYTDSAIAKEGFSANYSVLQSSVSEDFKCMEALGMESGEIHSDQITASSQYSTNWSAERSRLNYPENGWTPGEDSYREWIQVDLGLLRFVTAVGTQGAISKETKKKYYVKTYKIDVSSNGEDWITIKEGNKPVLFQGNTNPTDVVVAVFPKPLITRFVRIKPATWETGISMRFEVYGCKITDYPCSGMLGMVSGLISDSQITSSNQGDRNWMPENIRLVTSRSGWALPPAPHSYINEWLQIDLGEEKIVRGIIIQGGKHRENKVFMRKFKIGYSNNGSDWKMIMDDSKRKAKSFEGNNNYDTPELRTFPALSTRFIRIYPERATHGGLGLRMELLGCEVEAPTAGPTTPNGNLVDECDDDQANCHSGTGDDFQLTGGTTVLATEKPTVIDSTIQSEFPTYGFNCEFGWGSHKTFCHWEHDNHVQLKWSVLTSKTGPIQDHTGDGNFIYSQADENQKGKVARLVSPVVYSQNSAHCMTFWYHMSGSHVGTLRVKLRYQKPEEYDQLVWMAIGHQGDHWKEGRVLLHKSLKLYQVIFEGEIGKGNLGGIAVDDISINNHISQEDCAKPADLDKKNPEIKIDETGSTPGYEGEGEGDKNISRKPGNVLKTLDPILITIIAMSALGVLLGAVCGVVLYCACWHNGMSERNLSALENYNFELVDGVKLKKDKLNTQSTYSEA", "type": "binding", "set-up": "the NP-1 cDNA used for these experiments would only produce the full-length receptor; expressed in transfected cells; host or cells: COS-1", "method": "(§1) When co-expressing VEGFR-2 and NP-1, 5 μg of VEGFR-2 cDNA and 2 μg of NP-1 cDNA are used. When the receptors are expressed in isolation, for VEGFR-2, 5 μg of VEGFR-2 cDNA and 2 μg of mock vector cDNA are used.\n(§2) After generation of the liposome/DNA solution, the cells are rinsed one time with 5 ml Optimem I, then replaced with another 5 ml of Optimem I containing the liposome/DNA solution. The cells are incubated for two to four hours at 37° C., 5% CO2, then 5 ml of COS-1 cell growth medium is applied and the transfection is allowed to proceed overnight. The following day, cells are trypsinized (0.2% trypsin, 1 mM EDTA, Gibco-BRL), and cells containing common transfectants are pooled. […] The cells are then used for corresponding VEGFR-2/NP-1 complex formation and peptide blocking studies.\n(§3) Cells are plated the day before experimentation at 200,000 cells per well in twelve well tissue culture plates (VWR) in 1 ml of growth medium specific for each cell type. On the day of experimentation, the cells were pre-equilibrated at 4° C. for 30 to 60 minutes in binding buffer (0.2% BSA, Sigma; 25 mM Hepes, Gibco; MEM, Gibco). […] The binding reaction is allowed to reach equilibrium for four hours at 4° C. with gentle agitation.\n(§4) Unbound ligand is then removed by quickly washing three times with 5 ml ice cold BSA-free binding buffer (MEM, Gibco, 25 mM Hepes, Gibco). Cells are lysed by the addition of 250 μl of RIPS Buffer (previously described), and the lysed cells are transferred to 12×75 mm test tubes and counted using a gamma counter. Generation of competition curves and IC50 values are performed using the Prism software package (Graphpad Software Inc., San Diego, Calif.)."}, "VEGFR-2/NP-1": {"tested_on": "T1, VEGFR-2/NP-1", "T1 construct": "In the COS-1 cells overexpressing the full-length VEGFR-2; the NP-1 cDNA used for these experiments would only produce the full-length receptor; expressed in transfected cells; host or cells: COS-1", "type": "binding, human", "method": "as §1, §2, §3, §4"}}, "note": "Peptide text beside a SMILES is read from it."}
{"compound": "C[C@@H]1NC(=O)CNC(=O)[C@H](CCCNC(=N)N)NC(=O)CNC(=O)[C@H](C)NC(=O)[C@@H](N)CSSC[C@@H](C(=O)N[C@@H](CCCNC(=N)N)C(=O)N[C@@H](CCC(=O)O)C(=O)N[C@@H](CCCCN)C(=O)N[C@@H](CCC(N)=O)C(=O)N[C@@H](CCCNC(=N)N)C(=O)N2CCC[C@H]2C(=O)N[C@@H](CO)C(=O)N[C@@H](CC(=O)O)C(=O)N[C@@H](CCCCN)C(=O)N2CCC[C@H]2C(=O)N[C@@H](CCCNC(=N)N)C(=O)N[C@@H](CCCNC(=N)N)C(=O)O)NC(=O)[C@H](CCCNC(=N)N)NC1=O", "note": "[P6V8-3NCS1-7CCA1A5] (HELM PEPTIDE1{C.A.G.R.G.A.R.C.R.E.K.Q.R.P.S.D.K.P.R.R}$PEPTIDE1,PEPTIDE1,1:R3-8:R3$$$V2.0)", "values": [{"measurement": "Relative Affinity to Lead (RALP), NP-1", "setting": "NP-1", "result": 30.76}, {"measurement": "Relative Affinity to Lead (RALP), VEGFR-2/NP-1", "setting": "VEGFR-2/NP-1", "result": 17.33}]}
{"compound": "C[C@@H]1NC(=O)[C@@H](N)CSSC[C@@H](C(=O)N[C@@H](CCCNC(=N)N)C(=O)N[C@@H](CCC(=O)O)C(=O)N[C@@H](CCCCN)C(=O)N[C@@H](CCC(N)=O)C(=O)N[C@@H](CCCNC(=N)N)C(=O)N2CCC[C@H]2C(=O)N[C@@H](CO)C(=O)N[C@@H](CC(=O)O)C(=O)N[C@@H](CCCCN)C(=O)N2CCC[C@H]2C(=O)N[C@@H](CCCNC(=N)N)C(=O)N[C@@H](CCCNC(=N)N)C(=O)O)NC(=O)[C@H](CCCNC(=N)N)NC(=O)[C@H](CCCCN)NC(=O)CNC(=O)[C@H](CCCNC(=N)N)NC(=O)CNC1=O", "note": "[P6V8-3NCS1-7CCA1] (HELM PEPTIDE1{C.A.G.R.G.K.R.C.R.E.K.Q.R.P.S.D.K.P.R.R}$PEPTIDE1,PEPTIDE1,1:R3-8:R3$$$V2.0)", "values": [{"measurement": "Relative Affinity to Lead (RALP), NP-1", "setting": "NP-1", "result": 14.35}, {"measurement": "Relative Affinity to Lead (RALP), VEGFR-2/NP-1", "setting": "VEGFR-2/NP-1", "result": 1.97}]}
{"compound": "C[C@@H]1NC(=O)CNC(=O)[C@H](CCCNC(=N)N)NC(=O)CNC(=O)[C@H](CCCCN)NC(=O)[C@@H](N)CSSC[C@@H](C(=O)N[C@@H](CCCNC(=N)N)C(=O)N[C@@H](CCC(=O)O)C(=O)N[C@@H](CCCCN)C(=O)N[C@@H](CCC(N)=O)C(=O)N[C@@H](CCCNC(=N)N)C(=O)N2CCC[C@H]2C(=O)N[C@@H](CO)C(=O)N[C@@H](CC(=O)O)C(=O)N[C@@H](CCCCN)C(=O)N2CCC[C@H]2C(=O)N[C@@H](CCCNC(=N)N)C(=O)N[C@@H](CCCNC(=N)N)C(=O)O)NC(=O)[C@H](CCCNC(=N)N)NC1=O", "note": "[P6V8-3NCS1-7CCA5] (HELM PEPTIDE1{C.K.G.R.G.A.R.C.R.E.K.Q.R.P.S.D.K.P.R.R}$PEPTIDE1,PEPTIDE1,1:R3-8:R3$$$V2.0)", "values": [{"measurement": "Relative Affinity to Lead (RALP), NP-1", "setting": "NP-1", "result": 1.64}, {"measurement": "Relative Affinity to Lead (RALP), VEGFR-2/NP-1", "setting": "VEGFR-2/NP-1", "result": 1.87}]}
{"compound": "H-AGRGARAAEAQRPSDKPRR-OH [P6V8-3NCSA1,5,7,8, 10]", "values": [{"measurement": "Relative Affinity to Lead Peptide (RALP), NP-1", "setting": "NP-1", "result": 67.76}, {"measurement": "Relative Affinity to Lead Peptide (RALP), VEGFR-2/NP-1", "setting": "VEGFR-2/NP-1", "result": 5.22}]}
{"compound": "H-AGRGARRREKQRPSDKPRR-OH [P6V8-3NCSA1A5]", "values": [{"measurement": "Relative Affinity to Lead Peptide (RALP), VEGFR-2/NP-1", "setting": "VEGFR-2/NP-1", "result": 0.71}]}
{"compound": "H-AGRGKARREKQRPSDKPRR-OH [P6V8-3NCSA1A6]", "values": [{"measurement": "Relative Affinity to Lead Peptide (RALP), NP-1", "setting": "NP-1", "result": 2.30}, {"measurement": "Relative Affinity to Lead Peptide (RALP), VEGFR-2/NP-1", "setting": "VEGFR-2/NP-1", "result": 0.93}]}
{"compound": "H-AGRGKRRREKQRPSDKPRR-OH [Peptide P6V8-3NCSA1]", "values": [{"measurement": "Relative Affinity to Lead Peptide (RALP), NP-1", "setting": "NP-1", "result": 0.99}]}
{"compound": "H-KGAGKARREKQRPSDKPRR-OH [P6V8-3NCSA3A6]", "values": [{"measurement": "Relative Affinity to Lead Peptide (RALP), NP-1", "setting": "NP-1", "result": 48.8}, {"measurement": "Relative Affinity to Lead Peptide (RALP), VEGFR-2/NP-1", "setting": "VEGFR-2/NP-1", "result": 8.20}]}
{"compound": "H-KGAGKRRREKQRPSDKPRR-OH [Peptide P6V8-3NCSA3]", "values": [{"measurement": "Relative Affinity to Lead Peptide (RALP), NP-1", "setting": "NP-1", "result": 8.8}, {"measurement": "Relative Affinity to Lead Peptide (RALP), VEGFR-2/NP-1", "setting": "VEGFR-2/NP-1", "result": 0.23}]}
{"compound": "H-KGRGARRREKQRPSDKPRR-OH [Peptide P6V8-3NCSA5]", "values": [{"measurement": "Relative Affinity to Lead Peptide (RALP), VEGFR-2/NP-1", "setting": "VEGFR-2/NP-1", "result": 1.45}]}
{"compound": "H-KGRGKARREKQRPSDKPRR-OH [Peptide P6V8-3NCSA6]", "values": [{"measurement": "Relative Affinity to Lead Peptide (RALP), NP-1", "setting": "NP-1", "result": 2.16}, {"measurement": "Relative Affinity to Lead Peptide (RALP), VEGFR-2/NP-1", "setting": "VEGFR-2/NP-1", "result": 5.10}]}
{"compound": "H-KGRGKRAAEKQAPSDKPRR-OH [P6V8-3NCSA7,8, 12]", "values": [{"measurement": "Relative Affinity to Lead Peptide (RALP), NP-1", "setting": "NP-1", "result": 1.91}]}
